Drawing on article PMC5761851, “Application of a phenotypic drug discovery strategy to identify biological and chemical starting points for inhibition of TSLP production in lung epithelial cells” (PLoS ONE, 2018), this text covers remaining activity for five compounds.

What all share (assay): kinase selectivity panel
Common to all, as to format: biochemical

Test [1] addresses T1, Abl (Homo sapiens, UniProt P00519).
T1 construct: purchased Eurofins Pharma Discovery Services (KinaseProfiler; Cerep BioPrint panel)
Particulars: read-out: percentage of control activity (POC), Abl. The procedure, abridged:
(§1)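 Tested at 10 μM in duplicate within a panel of 125 representative kinases. For selected activities, IC50 values were then determined from 9 concentrations, each run in duplicate.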

The target in test [2] is T2, CDK1/cyclinB (Homo sapiens, UniProt P06493).
T2 construct: purchased Eurofins Pharma Discovery Services (KinaseProfiler; Cerep BioPrint panel)
T2 sequence (P06493 whole entry): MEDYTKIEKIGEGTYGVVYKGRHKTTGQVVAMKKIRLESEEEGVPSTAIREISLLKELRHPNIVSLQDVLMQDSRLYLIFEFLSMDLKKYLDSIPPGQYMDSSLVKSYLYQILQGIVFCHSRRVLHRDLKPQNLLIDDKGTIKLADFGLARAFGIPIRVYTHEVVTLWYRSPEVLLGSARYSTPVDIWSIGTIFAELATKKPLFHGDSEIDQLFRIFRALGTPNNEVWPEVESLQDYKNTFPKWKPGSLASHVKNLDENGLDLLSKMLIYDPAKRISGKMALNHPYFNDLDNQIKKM
T2 sequence (P14635 whole entry partner): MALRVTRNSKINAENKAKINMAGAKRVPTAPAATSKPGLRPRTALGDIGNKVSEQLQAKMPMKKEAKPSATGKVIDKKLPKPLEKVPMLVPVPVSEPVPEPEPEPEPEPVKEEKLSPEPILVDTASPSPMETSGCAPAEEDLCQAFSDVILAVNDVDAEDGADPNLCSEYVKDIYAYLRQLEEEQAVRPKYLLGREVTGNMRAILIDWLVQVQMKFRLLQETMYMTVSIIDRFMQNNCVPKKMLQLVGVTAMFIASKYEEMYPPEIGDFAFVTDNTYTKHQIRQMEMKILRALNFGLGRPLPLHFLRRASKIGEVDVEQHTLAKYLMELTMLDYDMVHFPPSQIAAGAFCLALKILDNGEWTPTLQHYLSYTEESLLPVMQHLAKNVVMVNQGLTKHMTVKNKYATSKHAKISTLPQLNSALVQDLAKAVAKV
Particulars: read-out: percentage of control activity (POC), CDK1/cyclinB. The procedure, abridged: as §1

Test [3] addresses T3, CDK7/cyclinH/MAT1 (Homo sapiens, UniProt P50613).
T3 construct: purchased Eurofins Pharma Discovery Services (KinaseProfiler; Cerep BioPrint panel)
Particulars: read-out: percentage of control activity (POC), CDK7/cyclinH/MAT1. The method in brief: as §1

Test [4] deals with T4, FAK (Homo sapiens, UniProt Q05397).
T4 construct: purchased Eurofins Pharma Discovery Services (KinaseProfiler; Cerep BioPrint panel)
T4 sequence (Q05397 whole entry): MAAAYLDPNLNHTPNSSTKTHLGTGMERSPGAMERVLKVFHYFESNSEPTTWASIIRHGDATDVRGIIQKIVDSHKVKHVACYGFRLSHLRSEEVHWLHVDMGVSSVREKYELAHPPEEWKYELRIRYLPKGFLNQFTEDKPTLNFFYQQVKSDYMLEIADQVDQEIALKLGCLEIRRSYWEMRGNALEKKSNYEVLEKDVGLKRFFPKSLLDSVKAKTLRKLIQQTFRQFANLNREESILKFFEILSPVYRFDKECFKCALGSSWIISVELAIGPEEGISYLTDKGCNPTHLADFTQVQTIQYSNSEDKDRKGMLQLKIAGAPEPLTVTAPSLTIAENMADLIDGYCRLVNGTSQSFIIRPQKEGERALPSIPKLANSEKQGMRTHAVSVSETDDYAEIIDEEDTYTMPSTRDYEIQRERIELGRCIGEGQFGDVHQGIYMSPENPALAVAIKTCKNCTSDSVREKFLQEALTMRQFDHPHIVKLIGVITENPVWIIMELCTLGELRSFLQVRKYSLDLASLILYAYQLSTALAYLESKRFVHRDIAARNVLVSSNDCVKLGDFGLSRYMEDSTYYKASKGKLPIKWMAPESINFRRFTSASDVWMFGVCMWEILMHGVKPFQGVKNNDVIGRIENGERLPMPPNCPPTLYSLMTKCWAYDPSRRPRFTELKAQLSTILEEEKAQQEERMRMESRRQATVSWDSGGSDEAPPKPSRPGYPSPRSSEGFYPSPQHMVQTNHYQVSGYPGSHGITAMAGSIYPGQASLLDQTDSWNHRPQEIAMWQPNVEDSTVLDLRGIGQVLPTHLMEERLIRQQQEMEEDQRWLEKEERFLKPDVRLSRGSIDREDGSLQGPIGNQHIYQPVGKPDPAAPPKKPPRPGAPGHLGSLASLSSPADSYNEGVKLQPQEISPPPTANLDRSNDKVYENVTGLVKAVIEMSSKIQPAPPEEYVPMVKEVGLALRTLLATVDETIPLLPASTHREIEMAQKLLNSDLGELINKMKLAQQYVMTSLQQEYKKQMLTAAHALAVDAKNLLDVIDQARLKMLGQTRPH
Particulars: read-out: percentage of control activity (POC), FAK. The procedure, abridged:
as §1

For test [5], the target named is T5, FGFR1 (Homo sapiens, UniProt P11362).
T5 construct: purchased Eurofins Pharma Discovery Services (KinaseProfiler; Cerep BioPrint panel)
T5 sequence (P11362 22-822): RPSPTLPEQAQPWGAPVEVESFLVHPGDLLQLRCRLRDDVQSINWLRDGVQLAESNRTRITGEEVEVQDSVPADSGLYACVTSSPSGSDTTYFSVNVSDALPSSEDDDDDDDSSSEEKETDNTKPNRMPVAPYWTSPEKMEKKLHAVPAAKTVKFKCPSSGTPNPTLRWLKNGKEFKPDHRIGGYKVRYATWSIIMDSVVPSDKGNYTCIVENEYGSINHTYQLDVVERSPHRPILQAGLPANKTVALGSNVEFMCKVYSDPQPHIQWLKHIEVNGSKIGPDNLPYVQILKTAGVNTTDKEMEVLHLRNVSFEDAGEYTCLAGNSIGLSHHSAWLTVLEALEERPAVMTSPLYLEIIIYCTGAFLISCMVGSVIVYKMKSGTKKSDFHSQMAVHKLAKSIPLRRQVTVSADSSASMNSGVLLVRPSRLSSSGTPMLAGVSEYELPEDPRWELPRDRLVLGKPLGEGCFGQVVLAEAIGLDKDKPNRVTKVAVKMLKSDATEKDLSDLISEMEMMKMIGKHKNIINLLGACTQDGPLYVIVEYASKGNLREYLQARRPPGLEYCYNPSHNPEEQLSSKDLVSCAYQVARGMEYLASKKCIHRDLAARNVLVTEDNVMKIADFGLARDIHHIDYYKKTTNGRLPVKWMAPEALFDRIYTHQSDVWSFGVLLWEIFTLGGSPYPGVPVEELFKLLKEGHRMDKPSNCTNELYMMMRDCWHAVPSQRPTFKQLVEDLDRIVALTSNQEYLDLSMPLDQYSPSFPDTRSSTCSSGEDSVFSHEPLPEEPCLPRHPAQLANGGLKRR
Particulars: read-out: percentage of control activity (POC), FGFR1. The procedure, abridged: as §1

The target of test [6] is T6, IKKα (Homo sapiens, UniProt O15111).
T6 construct: purchased Eurofins Pharma Discovery Services (KinaseProfiler; Cerep BioPrint panel)
T6 sequence (O15111 1-745): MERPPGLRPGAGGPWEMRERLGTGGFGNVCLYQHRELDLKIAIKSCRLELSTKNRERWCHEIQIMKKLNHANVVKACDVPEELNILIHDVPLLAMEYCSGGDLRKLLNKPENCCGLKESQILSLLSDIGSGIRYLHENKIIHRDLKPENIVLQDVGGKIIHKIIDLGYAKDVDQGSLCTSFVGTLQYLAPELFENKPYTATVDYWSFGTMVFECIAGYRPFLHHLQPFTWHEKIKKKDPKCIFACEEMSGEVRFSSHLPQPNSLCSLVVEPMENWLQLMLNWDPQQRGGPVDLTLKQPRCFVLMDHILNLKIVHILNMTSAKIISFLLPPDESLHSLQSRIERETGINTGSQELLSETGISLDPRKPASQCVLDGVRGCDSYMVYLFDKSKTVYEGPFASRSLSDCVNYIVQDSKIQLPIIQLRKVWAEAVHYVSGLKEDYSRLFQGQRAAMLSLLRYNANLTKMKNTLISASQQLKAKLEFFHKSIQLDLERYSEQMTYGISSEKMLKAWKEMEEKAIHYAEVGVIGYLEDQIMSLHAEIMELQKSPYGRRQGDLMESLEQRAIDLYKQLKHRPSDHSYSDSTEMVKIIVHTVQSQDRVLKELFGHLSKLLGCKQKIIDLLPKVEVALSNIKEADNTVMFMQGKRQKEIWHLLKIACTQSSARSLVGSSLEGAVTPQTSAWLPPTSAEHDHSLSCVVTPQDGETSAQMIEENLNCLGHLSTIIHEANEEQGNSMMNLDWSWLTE
Particulars: read-out: percentage of control activity (POC), IKKα. The method in brief:
as §1

The target of test [7] is T7, MEK1 (Homo sapiens, UniProt Q02750).
T7 construct: purchased Eurofins Pharma Discovery Services (KinaseProfiler; Cerep BioPrint panel)
T7 sequence (Q02750 whole entry): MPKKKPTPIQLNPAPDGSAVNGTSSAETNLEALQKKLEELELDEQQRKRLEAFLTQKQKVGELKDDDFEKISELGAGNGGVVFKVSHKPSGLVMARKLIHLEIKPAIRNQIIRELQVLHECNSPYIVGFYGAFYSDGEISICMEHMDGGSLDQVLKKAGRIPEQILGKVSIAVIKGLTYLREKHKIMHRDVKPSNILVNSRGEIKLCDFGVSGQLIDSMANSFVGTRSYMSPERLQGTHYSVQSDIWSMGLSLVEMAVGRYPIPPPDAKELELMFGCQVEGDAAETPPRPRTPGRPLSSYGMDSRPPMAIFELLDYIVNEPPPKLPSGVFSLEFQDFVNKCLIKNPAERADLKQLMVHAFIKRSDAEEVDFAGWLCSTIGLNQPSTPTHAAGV
Particulars: read-out: percentage of control activity (POC), MEK1. The procedure, abridged:
as §1

In test [8] the target is T8, MST1 (Homo sapiens, UniProt Q13043).
T8 construct: purchased Eurofins Pharma Discovery Services (KinaseProfiler; Cerep BioPrint panel)
T8 sequence (Q13043 1-487): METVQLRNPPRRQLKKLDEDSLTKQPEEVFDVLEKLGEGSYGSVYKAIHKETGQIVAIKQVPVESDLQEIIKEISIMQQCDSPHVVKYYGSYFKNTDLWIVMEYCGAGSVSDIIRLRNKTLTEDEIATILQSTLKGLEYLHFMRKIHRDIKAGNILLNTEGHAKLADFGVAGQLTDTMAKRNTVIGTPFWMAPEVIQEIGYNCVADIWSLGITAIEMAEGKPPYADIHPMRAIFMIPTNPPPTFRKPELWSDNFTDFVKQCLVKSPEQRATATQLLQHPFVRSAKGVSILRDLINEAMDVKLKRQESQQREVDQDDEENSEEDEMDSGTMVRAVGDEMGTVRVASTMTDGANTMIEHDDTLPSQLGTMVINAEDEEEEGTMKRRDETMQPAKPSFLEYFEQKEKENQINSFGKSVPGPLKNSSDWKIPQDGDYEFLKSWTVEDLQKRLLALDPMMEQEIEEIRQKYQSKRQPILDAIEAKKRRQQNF
Particulars: read-out: percentage of control activity (POC), MST1. The procedure, abridged:
as §1

SMILES strings stand for the structures.

T1 sequence (P00519 whole entry): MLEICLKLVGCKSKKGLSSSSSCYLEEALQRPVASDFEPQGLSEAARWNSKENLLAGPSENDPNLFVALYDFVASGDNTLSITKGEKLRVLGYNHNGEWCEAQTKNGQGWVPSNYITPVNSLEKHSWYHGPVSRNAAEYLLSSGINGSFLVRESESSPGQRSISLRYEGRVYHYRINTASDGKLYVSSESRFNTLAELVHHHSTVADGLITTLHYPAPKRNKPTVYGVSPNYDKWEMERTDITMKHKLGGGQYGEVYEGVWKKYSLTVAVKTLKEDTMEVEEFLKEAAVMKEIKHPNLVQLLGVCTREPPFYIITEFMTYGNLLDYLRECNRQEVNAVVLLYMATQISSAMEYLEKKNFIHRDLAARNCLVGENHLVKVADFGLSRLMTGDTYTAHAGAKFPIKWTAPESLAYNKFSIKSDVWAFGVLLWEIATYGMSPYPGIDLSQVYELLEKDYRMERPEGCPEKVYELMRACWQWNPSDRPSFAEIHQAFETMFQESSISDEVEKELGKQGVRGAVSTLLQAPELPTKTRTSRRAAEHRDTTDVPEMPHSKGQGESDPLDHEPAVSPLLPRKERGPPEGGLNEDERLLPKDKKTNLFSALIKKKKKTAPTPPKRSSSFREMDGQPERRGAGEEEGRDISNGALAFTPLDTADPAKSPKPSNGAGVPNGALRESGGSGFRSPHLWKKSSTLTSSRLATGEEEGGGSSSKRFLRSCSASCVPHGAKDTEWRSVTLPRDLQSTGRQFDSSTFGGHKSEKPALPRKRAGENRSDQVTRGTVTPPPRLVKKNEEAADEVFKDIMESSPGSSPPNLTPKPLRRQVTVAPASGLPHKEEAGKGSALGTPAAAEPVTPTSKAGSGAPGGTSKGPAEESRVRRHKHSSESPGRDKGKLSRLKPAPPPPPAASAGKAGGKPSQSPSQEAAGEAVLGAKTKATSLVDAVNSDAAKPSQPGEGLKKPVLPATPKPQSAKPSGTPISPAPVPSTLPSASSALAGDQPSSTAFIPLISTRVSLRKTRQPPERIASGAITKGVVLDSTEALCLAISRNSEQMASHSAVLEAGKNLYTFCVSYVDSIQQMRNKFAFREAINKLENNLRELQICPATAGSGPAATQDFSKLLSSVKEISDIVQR

Consider `CC(C)(C)N1CCC(c2cc(-c3ccc(F)cc3Cl)c3cc[n+]([O-])c(-c4c(Cl)cccc4Cl)c3n2)CC1` [compound 2], for which the remaining activity at 10 µM stood at 104% in test [1]; 100% in test [2]; 115% in test [3]; 111% in test [4]; 80% in test [5]; 102% in test [6]. Besides, the values for the remaining activity at 10 µM in test [7] and in test [8] were 112% and 103%, respectively.
In the case of `Cc1ccc(C(=O)NCC2CC2)cc1-c1ccc2c(c1)NC(=O)C21CCCC1` [compound 3], the remaining activity at 10 µM in test [1] was 96%; in test [2], 96%; in test [3], 104%; in test [4], 99%; in test [5], 95%; in test [6], 101%. Also, the remaining activity at 10 µM in test [7] was 94%; in test [8], 88%.
Regarding `Cn1cc(-c2cccc(-c3nc(C(=O)NC4C5CC6CC4CC(O)(C6)C5)c(N)nc3N)c2)cn1` (stereo not shown) [compound 4], the remaining activity at 10 µM stood at 66% in test [1]; 64% in test [2]; 95% in test [3]; 99% in test [4]; 86% in test [5]; 100% in test [6]. In addition, the remaining activity at 10 µM in test [7] was found to be 97%; in test [8] it was 58%.
On to `CS(=O)(=O)N1CCN(c2ccc(Nc3ncc(C(N)=O)c(NC4CC4)n3)cc2)CC1` [compound 5], for which the remaining activity at 10 µM was 2% in test [1]; 71% in test [2]; 71% in test [3]; 1% in test [4]; 3% in test [5]; 1% in test [6]. The values for the remaining activity at 10 µM in test [7] and in test [8] were 13% and -1%, respectively.
Take `COc1c(NC(=O)c2ccc(C)c(-c3nnc4c(NCC(C)(C)C)nccn34)c2)cc(C(C)(C)C)cc1NS(C)(=O)=O` [compound 7, reference compound]: the remaining activity at 10 µM in test [1] was found to be 50%; in test [2] it was 101%; in test [3], 101%; in test [4] it was 104%; in test [5], 109%; in test [6], 135%. Moreover, the remaining activity at 10 µM in test [7] worked out at 107%; in test [8], 101%.
